{"source": "paper PMC11822212", "about": "“High-throughput screening identifies Aurora kinase B as a critical therapeutic target for Merkel cell carcinoma” (Nature Communications, 2025)", "key": {"[1]": {"tested_on": "MCC13 cells (VN-MCC)", "assay": "qHTS cell viability (CellTiter-Glo, 72 h; primary and follow-up small molecule screen)", "assay_type": "cell-based, human"}, "[2]": {"tested_on": "VP-MCC cell lines (WAGA, MKL-1, MKL-2)", "assay": "qHTS cell viability, VP-MCC cell lines as a group (mean AUC, VP.MCC.avg)", "assay_type": "cell-based, human"}, "[3]": {"tested_on": "HACAT cells", "assay": "qHTS cell viability (CellTiter-Glo, 72 h; primary screen), control cell line", "assay_type": "cell-based, human"}, "[4]": {"tested_on": "UISO cells (VN-MCC)", "assay": "qHTS cell viability (CellTiter-Glo, 72 h; primary and follow-up small molecule screen)", "assay_type": "cell-based, human"}, "[5]": {"tested_on": "six MCC cell lines and four control cell lines", "assay": "qHTS cell viability, all 10 cell lines screened", "assay_type": "cell-based"}, "[6]": {"tested_on": "NIH-3T3 cells", "assay": "qHTS cell viability (CellTiter-Glo, 72 h; primary screen), control cell line", "assay_type": "cell-based, mouse"}, "[7]": {"tested_on": "HEK293T cells", "assay": "qHTS cell viability (CellTiter-Glo, 72 h; primary screen), control cell line", "assay_type": "cell-based, human"}, "[8]": {"tested_on": "MCC cell lines (WAGA, MKL-1, MKL-2, MCC13, MCC26, UISO)", "assay": "qHTS cell viability, all six MCC cell lines as a group (mean AUC, MCC.avg)", "assay_type": "cell-based, human"}, "[9]": {"tested_on": "WAGA cells (VP-MCC)", "assay": "qHTS cell viability (CellTiter-Glo, 72 h; primary and follow-up small molecule screen)", "assay_type": "cell-based, human"}, "[10]": {"tested_on": "CRL-7250 cells", "assay": "qHTS cell viability (CellTiter-Glo, 72 h; primary screen), control cell line", "assay_type": "cell-based"}, "[11]": {"tested_on": "MCC26 cells (VN-MCC)", "assay": "qHTS cell viability (CellTiter-Glo, 72 h; primary and follow-up small molecule screen)", "assay_type": "cell-based, human"}, "[12]": {"tested_on": "control cell lines (HACAT, HEK293T, CRL-7250, NIH-3T3)", "assay": "qHTS cell viability, control cell lines as a group (mean AUC, Control.avg)", "assay_type": "cell-based"}, "[13]": {"tested_on": "MKL-2 cells (VP-MCC)", "assay": "qHTS cell viability (CellTiter-Glo, 72 h; primary and follow-up small molecule screen)", "assay_type": "cell-based, human"}, "[14]": {"tested_on": "VN-MCC cell lines (MCC13, MCC26, UISO)", "assay": "qHTS cell viability, VN-MCC cell lines as a group (mean AUC, VN.MCC.avg)", "assay_type": "cell-based, human"}, "[15]": {"tested_on": "MKL-1 cells (VP-MCC)", "assay": "qHTS cell viability (CellTiter-Glo, 72 h; primary and follow-up small molecule screen)", "assay_type": "cell-based, human"}, "[16]": {"conditions": "MIPE library, 11-point DRC, sheet S2E"}, "[17]": {"conditions": "MIPE library, 11-point DRC, control cell line, sheet S2E"}}, "note": "“And” between values parts separate entries of the source, which are not always exact repeats. Equal entries are not always repeated. Structures can show the parent of a compound that is named as a salt. Where two headings read alike, the source gives them in different places.", "data": [{"smiles": "C#CCN(C)[C@H](C)Cc1ccccc1", "note": "[Selegiline hydrochloride]", "values": [{"measurement": "MCC13_AUC", "setting": "[1]", "result": 453.711}, {"measurement": "Control-VP-MCC", "setting": "[2]", "result": 51.4197}, {"measurement": "VP-MCC_Avg_AUC", "setting": "[2]", "result": 408.101}, {"measurement": "HACAT_AUC", "setting": "[3]", "result": 471.82}, {"measurement": "UISO_AUC", "setting": "[4]", "result": 478.192}, {"measurement": "Control-MCC", "setting": "[5]", "result": 26.4329}, {"measurement": "NIH3T3_AUC", "setting": "[6]", "result": 471.047}, {"measurement": "HEK293T_AUC", "setting": "[7]", "result": 439.797}, {"measurement": "MCC_Avg_AUC", "setting": "[8]", "result": 433.088}, {"measurement": "WAGA_AUC", "setting": "[9]", "result": 431.581}, {"measurement": "CRL7250_AUC", "setting": "[10]", "result": 455.418}, {"measurement": "MCC26_AUC", "setting": "[11]", "result": 442.321}, {"measurement": "Control_Avg_AUC", "setting": "[12]", "result": 459.521}, {"measurement": "MKL2_AUC", "setting": "[13]", "result": 391.028}, {"measurement": "Control-VN-MCC", "setting": "[14]", "result": 1.446}, {"measurement": "VN-MCC_Avg_AUC", "setting": "[14]", "result": 458.075}, {"measurement": "MKL1_AUC", "setting": "[15]", "result": 401.694}]}, {"smiles": "CCCCCC(=O)O[C@]1(C(C)=O)CC[C@H]2[C@@H]3CCC4=CC(=O)CC[C@]4(C)[C@H]3CC[C@@]21C", "note": "[Hydroxyprogesterone caproate]", "values": [{"measurement": "MCC13_AUC", "setting": "[1]; NPC library, qHTS dose-response AUC, MCC13", "result": 442.155}, {"measurement": "Control-VP-MCC", "setting": "[2]; Control AUC minus VP-MCC AUC", "result": 125.408}, {"measurement": "VP-MCC_Avg_AUC", "setting": "[2]; NPC library, mean AUC of VP-MCC cell lines", "result": 330.619}, {"measurement": "Control-VP-MCC", "setting": "[2]; NPC library, therapeutic window: Control avg AUC minus VP-MCC avg AUC", "result": 125.408}, {"measurement": "HACAT_AUC", "setting": "[3]; NPC library, qHTS dose-response AUC, HACAT control", "result": 471.336}, {"measurement": "UISO_AUC", "setting": "[4]; NPC library, qHTS dose-response AUC, UISO", "result": 419.635}, {"measurement": "Control-MCC", "setting": "[5]; NPC library, therapeutic window: Control avg AUC minus MCC avg AUC", "result": 74.9886}, {"measurement": "NIH3T3_AUC", "setting": "[6]; NPC library, qHTS dose-response AUC, NIH3T3 control", "result": 480.983}, {"measurement": "HEK293T_AUC", "setting": "[7]; NPC library, qHTS dose-response AUC, HEK293T control", "result": 404.302}, {"measurement": "MCC_Avg_AUC", "setting": "[8]; NPC library, mean AUC of all 6 MCC cell lines", "result": 381.038}, {"measurement": "MCC_Avg_AUC", "setting": "[8]; NPC library, mean AUC of six MCC cell lines", "result": 381.038}, {"measurement": "WAGA_AUC", "setting": "[9]; NPC library, qHTS dose-response AUC, WAGA", "result": 360.251}, {"measurement": "CRL7250_AUC", "setting": "[10]; NPC library, qHTS dose-response AUC, CRL7250 control", "result": 467.486}, {"measurement": "MCC26_AUC", "setting": "[11]; NPC library, qHTS dose-response AUC, MCC26", "result": 432.584}, {"measurement": "MCC26_AUC", "setting": "[11]; NPC library; qHTS dose-response AUC, MCC26", "result": 432.583}, {"measurement": "Control_Avg_AUC", "setting": "[12]; NPC library, mean AUC of control cell lines", "result": 456.027}, {"measurement": "MKL2_AUC", "setting": "[13]; NPC library, qHTS dose-response AUC, MKL2", "result": 288.23}, {"measurement": "Control-VN-MCC", "setting": "[14]; Control AUC minus VN-MCC AUC", "result": 24.569}, {"measurement": "VN-MCC_Avg_AUC", "setting": "[14]; NPC library, mean AUC of VN-MCC cell lines", "result": 431.458}, {"measurement": "Control-VN-MCC", "setting": "[14]; NPC library, therapeutic window: Control avg AUC minus VN-MCC avg AUC", "result": 24.569}, {"measurement": "MKL1_AUC", "setting": "[15]; NPC library, qHTS dose-response AUC, MKL1", "result": 343.375}]}, {"smiles": "COc1ccc(C(=O)CC(=O)c2ccc(C(C)(C)C)cc2)cc1", "values": [{"measurement": "MCC13_AUC", "setting": "[1]; [16]", "result": 495.434}, {"measurement": "MCC13_AUC", "setting": "[1]; area under the dose-response curve, MCC13 cells, AUC<450 = reduced viability", "result": 482.294}, {"measurement": "Control-VP-MCC", "setting": "[2]; MIPE library, Control AUC minus VP-MCC AUC (therapeutic window), sheet S2E", "result": 140.718}, {"measurement": "VP-MCC_Avg_AUC", "setting": "[2]; MIPE library, mean AUC of VP-MCC cell lines, sheet S2E", "result": 319.984}, {"measurement": "HACAT_AUC", "setting": "[3]; [17]", "result": 476.58}, {"measurement": "HACAT_AUC", "setting": "[3]; area under the dose-response curve, HACAT control cells, AUC<450 = reduced viability", "result": 467.786}, {"measurement": "UISO_AUC", "setting": "[4]; [16]", "result": 429.371}, {"measurement": "UISO_AUC", "setting": "[4]; area under the dose-response curve, UISO cells, AUC<450 = reduced viability", "result": 482.124}, {"measurement": "Control-MCC", "setting": "[5]; MIPE library, Control AUC minus MCC AUC (therapeutic window), sheet S2E", "result": 65.7381}, {"measurement": "NIH3T3_AUC", "setting": "[6]; [17]", "result": 477.589}, {"measurement": "NIH3T3_AUC", "setting": "[6]; area under the dose-response curve, NIH3T3 control cells, AUC<450 = reduced viability", "result": 482.946}, {"measurement": "HEK293T_AUC", "setting": "[7]; [17]", "result": 472.366}, {"measurement": "HEK293T_AUC", "setting": "[7]; area under the dose-response curve, HEK293T control cells, AUC<450 = reduced viability", "result": 465.048}, {"measurement": "MCC_Avg_AUC", "setting": "[8]; MIPE library, mean AUC of six MCC cell lines, sheet S2E", "result": 394.964}, {"measurement": "WAGA_AUC", "setting": "[9]; [16]", "result": 305.979}, {"measurement": "WAGA_AUC", "setting": "[9]; area under the dose-response curve, WAGA cells, AUC<450 = reduced viability", "result": 381.481}, {"measurement": "CRL7250_AUC", "setting": "[10]; [17]", "result": 416.272}, {"measurement": "CRL7250_AUC", "setting": "[10]; area under the dose-response curve, CRL7250 control cells, AUC<450 = reduced viability", "result": 453.419}, {"measurement": "MCC26_AUC", "setting": "[11]; [16]", "result": 485.026}, {"measurement": "MCC26_AUC", "setting": "[11]; area under the dose-response curve, MCC26 cells; AUC<450 = reduced viability", "result": 481.864}, {"measurement": "Control_Avg_AUC", "setting": "[12]; MIPE library, mean AUC of control cell lines, sheet S2E", "result": 460.702}, {"measurement": "MKL2_AUC", "setting": "[13]; [16]", "result": 314.76}, {"measurement": "MKL2_AUC", "setting": "[13]; area under the dose-response curve, MKL-2 cells, AUC<450 = reduced viability", "result": 386.921}, {"measurement": "Control-VN-MCC", "setting": "[14]; MIPE library, Control AUC minus VN-MCC AUC (therapeutic window), sheet S2E", "result": -9.242}, {"measurement": "VN-MCC_Avg_AUC", "setting": "[14]; MIPE library, mean AUC of VN-MCC cell lines, sheet S2E", "result": 469.944}, {"measurement": "MKL1_AUC", "setting": "[15]; [16]", "result": 339.212}, {"measurement": "MKL1_AUC", "setting": "[15]; area under the dose-response curve, MKL-1 cells, AUC<450 = reduced viability", "result": 411.648}]}, {"smiles": "CC(Cc1ccccc1)NCCn1cnc2c1c(=O)n(C)c(=O)n2C", "note": "(stereo not shown) [Fenethylline hydrochloride]", "values": [{"measurement": "MCC13_AUC", "setting": "[1]", "result": 447.432}, {"measurement": "Control-VP-MCC", "setting": "[2]", "result": 60.9825}, {"measurement": "VP-MCC_Avg_AUC", "setting": "[2]", "result": 425.75}, {"measurement": "HACAT_AUC", "setting": "[3]", "result": 497.83}, {"measurement": "UISO_AUC", "setting": "[4]", "result": 437.462}, {"measurement": "Control-MCC", "setting": "[5]", "result": 57.3924}, {"measurement": "NIH3T3_AUC", "setting": "[6]", "result": 480.657}, {"measurement": "HEK293T_AUC", "setting": "[7]", "result": 471.885}, {"measurement": "MCC_Avg_AUC", "setting": "[8]", "result": 429.34}, {"measurement": "WAGA_AUC", "setting": "[9]", "result": 435.275}, {"measurement": "CRL7250_AUC", "setting": "[10]", "result": 496.56}, {"measurement": "MCC26_AUC", "setting": "[11]", "result": 413.898}, {"measurement": "Control_Avg_AUC", "setting": "[12]", "result": 486.733}, {"measurement": "MKL2_AUC", "setting": "[13]", "result": 435.518}, {"measurement": "Control-VN-MCC", "setting": "[14]", "result": 53.8023}, {"measurement": "VN-MCC_Avg_AUC", "setting": "[14]", "result": "432.93 and 432.931"}, {"measurement": "MKL1_AUC", "setting": "[15]", "result": 406.458}]}]}
